12 molecules from patent US5273989A, “3,5-disubstituted 2-isoxazolines and isoxazoles, agents containing them and their use” (Hoechst Aktiengesellschaft, priority 1990, dated 1993) can be followed below.

Data set [1] concerns high affinity 3H-D-aspartate absorption, synaptic vesicles (synaptosomes) from rat cortex. The experiment in a line: "High affinity" absorption of 3H-aspartate in a vesicle preparation from rat brain. In kind it is biochemical. As to conditions: relative to control values (100%). How it is done: 1. "High affinity" absorption of ^3 H-aspartate in a vesicle preparation from rat brain.
Test principle: Fresh synaptic vesicles (synaptosomes) from rat cortex are incubated with buffer solution and ^3 H-D-aspartate and ^3 H-D-aspartate in the vesicles is measured. Preparations which in comparison to control synaptosomes increase the high affinity ^3 H-D-aspartate absorption and those which prevent the loss of ^3 H-D-aspartate by reliberation are regarded as particularly interesting.
Experimental protocol: The experiments for ^3 H-D-aspartate absorption were carried out by the method of Anand et al. (Biochem. Pharmacol., 35 (1986), 1055-1057). The synaptic vesicles were dissected out of cerebral cortex from male Sprague-Dawley rats. The preparations were tested at four concentrations as double samples in parallel with control samples containing buffer. The incubation medium (pH 7.4) contains: 1.2 mM KH2 PO4, 5 mM KCl, 5 mM pyruvate, 1.2 mM glucose, 1.2 mM MgCl2, 114 mM NaCl, 25 mM NaHCO3. For the non-specific ^3 H-D-aspartate absorption, NaCl was replaced by 114 mM choline chloride and NaHCO3 by 25 mM KHCO3. An aliquot of the vesicle suspension (about 25 μg/ml of test solution) was added to the test sample which was temperature controlled at 37° C. and aerated with Carbogen (5% CO2, 95% O2) and preincubated for 2 minutes. The three minutes incubation for the amino acid absorption was started by addition of 50 μl of ^3 H-D-aspartate (specific activity 25 Ci/mmol, 10 pmol/ml of test solution). The vesicles were separated from the incubation medium by filtration and additional washing of the adhering labeled amino acids using a Titertek cell harvester (Flow Laboratories, Meckenheim). The ^3 H-D-aspartate absorption was measured by means of a liquid scintillation counter (Canberra-Packard, Model 1500, Frankfurt).
The preparation activity is indicated in percent of the specific ^3 H-D-aspartate absorption, relative to control values (100%), in Table 3. Adenosine triphosphate (ATP) was used for comparison as the standard substance (see Table 3) and at 1 mM caused a 35% increase in the ^3 H-D-aspartate absorption.

Data set [2] relates to NMDA-stimulated 3H-acetylcholine release, striatum sections. The experiment in a line: Inhibition of NMDA-stimulated 3H-acetylcholine release from striatum sections of the rat brain. Format: cell-based. How it is done: 2. Inhibition of ^3 H-acetylcholine release from striatum sections of the rat brain
Test principle: For the test, fresh striatum sections from rat brain were rinsed with buffer solution in a special chamber and the release of the tritium-labeled acetylcholine was measured after stimulation with NMDA. Preparations having NMDA-antagonist action inhibit acetylcholine release.
Experimental protocol: The superfusion experiments were carried out by the method of Wichman et al. (Naunyn-Schmied. Arch. Pharmacol., 338 (1988), 623-631). Rat brain sections, 0.5 mm thick, were preincubated for 30 min in 2 ml of incubation medium which contains 0.1 μmol/l of ^3 H-choline having a specific activity of 80 Ci/mmol. In each of 6 superfusion chambers, a section was transferred and superfused for 90 min at a rate of 1.5 ml/min. 2 min fraction of the superfusate were continuously collected. Each section was superfused twice with 25 μmol/l of NMDA of two minutes each time in order to stimulate the release of acetylcholine. The first stimulus (S1) takes place between the 54th and the 56th minute and the 2nd stimulus (S2) between the 76th and 78th minute. The incubation medium contained, in mmol/l: NaCl 118, KCl 4.8, CaCl2 1.2, MgSO4 1.2, NaHCO3 25, KH2 PO4 1.2 and glucose 10. The medium was saturated with Carbogen at 37° C. The pH was adjusted to 7.4 NMDA and the novel preparations to be tested were dissolved in superfusion medium. The superfusion was carried out using Mg^2+ -free medium. Tritium from the dissolved sections and from the superfusate was determined by liquid scintillation counting using a Packard® 1900 CA (Frankfurt) at a 50% efficiency.
Calculation of the Results
Basal release and NMDA-stimulated release for S1 and S2 were expressed in %/min of each fraction (Limberger et al, Naunyn Schmied. Arch. Pharmacol. 339 (1988), 53-61).
The value for the stimulated release S2 /S1 was calculated for the control as 0.69±0.09. The value decreases if a substance, such as, for example, the NMDA receptor antagonist CPP (3-(+)-2-carboxypiperazin-4-ylpropyl-1-phosphonic acid) known from the literature inhibited the NMDA-stimulated release. The inhibition of the stimulated release by preparations was calculated in percent, relative to the control value, and is indicated in Table 4.

Data set [3] relates to NMDA-induced cramps. Nature of the data set: Inhibition of NMDA-induced cramps in the mouse. The conditions noted are these: po, 1 h; for inhibition in vivo at 0.3 mg/kg: 0.3 mg/kg p.o. In kind it is in vivo. How it is done:
4. Inhibition of NMDA-induced-cramps in the mouse
The examples listed below show neuroprotective activity in that they antagonize the cramps induced by NMDA (N-methyl-(D)-aspartate). To this end, intravenous injections of 20-30 mg/kg of NMDA are carried out on a male NMRI (Naval Medical Research Institute) mice of 22-24 g body weight, which leads to stereotypes, clonic cramps and in the majority of cases to mortality. In order to investigate an NMDA-antagonist activity of the test substances, they are administered orally one hour before NMDA. The animals are then observed for the abovementioned symptoms for up to 60 min. The number of animals with clonic cramps and the incidence of mortality, expressed in percent change compared to the control group, is regarded as the evaluation criterion.

Data set [4] in a line: Toxicity (LD50) in the mouse. As to conditions: in vivo, iv. From the text: As the examples investigated show considerable differences in toxicity compared to the standard substances, the LD50 values are also listed in Table 6,
The subject of data set [5] is CA1 pyramidal cells of the hippocampus after forebrain ischemia. The experiment in a line: Neuroprotection after forebrain ischemia in the gerbil. As to conditions: for Cell necroses (% change) / Behavior score (% change): 15 minutes before ischemia; for Cell necroses (% change): histopathological score CA1, treated versus control group; for Behavior score (% change): treated versus control group.
Experimental: A 5-minutes' ischemia of the forebrain with subsequent recirculation is produced in 20 male Mongolian gerbils under halothane anesthesia by bilateral closure of the corotid artery by means of aneurysm clips. 7 days later, the animals are decapitated under halothane anesthesia, the brains are fixed by immersion in Carnoy solution and the extent of neuron damage in the CA1 region of the hippocampus is determined "blind" with the aid of a 5-stage histopathological score. The test substance is administered intraperitoneally or orally 15 minutes before ischemia to each group of 10 gerbils. One ischemic control group, also of 10 animals, is treated with the respective solvents per test substance.

[6] abbreviates: preparation concentration 500 μM.
The mark [7] stands for this setting: preparation concentration 10 μM, 25 μmol/l NMDA stimulus, relative to control S2/S1, read-out: Inhibition of 3H-acetylcholine release from striatum sections, Inhibition (%).
Setting [8] is: 50 mg/kg p.o., one hour before NMDA i.v., change compared to control group, read-out: Inhibition of convulsions.
[9] abbreviates: read-out: Inhibition of mortality.
Setting [10] is: read-out: Inhibition of 3H-acetylcholine release from striatum sections, Inhibition (%).
The mark [11] stands for this setting: preparation concentration 100 μM.

Where a name gives a salt, the structure may show the parent alone. Read-outs that look alike come from different tables or passages of the source.

The term inhibition denotes the change of the read-out against control, counted positive when it falls. By LD50 is commonly meant the dose expected to kill half of the subjects tested. Low readings indicate greater toxicity, high ones lower toxicity. `NCc1cc(C(=O)O)no1` [Example 1, 3-Carboxy-5-aminomethylisoxazole]: the “Stimulation of the 3H-D-aspartate absorption, Stimulation (%)” value (from here on “Stimulation … (%)”) in data set [1] (setting [6]) is recorded as 15%. In addition, in data set [2] (setting [7]), the inhibition at 10 µM was 13%. The inhibition in vivo at 63 mg/kg in data set [3] (63 mg/kg p.o., one hour before NMDA i.v., change compared to control group, read-out: Inhibition of convulsions) stood at 50%. For the same molecule, the LD50 in data set [4] was greater than 200 mg/kg.

In the case of `O=C(O)CCC1=NOC(c2ccccn2)C1` (stereo not drawn) [Example 33, 3-(2-Carboxyethyl)-5-(2-pyridyl)-2-isoxazoline], in data set [2] (setting [7]), the inhibition at 10 µM is 26%.

With `CC(C)[C@@H]1CC[C@@H](C)C[C@H]1OC(=O)CCc1cc(CN)on1` [Example 8, (-)-menthyl 5-aminomethylisoxazole-3-propionate toluene-4-sulfonate], the “Stimulation … (%)” value in data set [1] (preparation concentration 10 μM) is on record as 13%. The inhibition at 10 µM in data set [2] (setting [7]) turned out to be 30%. For the same molecule, in data set [3] (setting [8]), the inhibition in vivo at 50 mg/kg was 70%. Moreover, in data set [3] (setting [9]), the inhibition in vivo at 50 mg/kg turned out to be 100%. This molecule also gave an LD50 in data set [4] of 50 to 100 mg/kg. Further, in data set [5] (50 mg/kg p.o.), the “Cell necroses (% change)” value is recorded as -46 % change and the “Behavior score (% change)” value turned out to be 0 % change.

For the molecule `O=C(O)CCc1cc(CO)on1` [Example 59, 5-Hydroxylmethyl-isoxazole-3-propionate sodium salt], the inhibition at 10 µM in data set [2] (setting [10]) was found to be 26%.

Consider `CC(C)[C@H]1CC[C@H](C)C[C@@H]1OC(=O)CCc1cc(CN)on1` [Example 7, (+)-menthyl 5-aminomethylisoxazole-3-propionate toluene-4-sulfonate], for which the inhibition at 10 µM in data set [2] (setting [7]) was determined as 28%.

For `O=C(O)C1=NOC(C(=O)O)C1` (stereo not drawn) [Example 56, 3,5-dicarboxyl-2-isoxazoline], in data set [1] (setting [6]), the “Stimulation … (%)” value is 17%. Besides, the inhibition at 10 µM in data set [2] (setting [7]) was found to be 11%.

In the case of `COC(=O)CCc1cc(CNC(=O)[C@@H](N)Cc2ccccc2)on1.Cl` [Example 22, Methyl 5-(L-phenylalanylamino)methylisoxazole-3-propionate hydrochloride], the “Stimulation … (%)” value in data set [1] (setting [11]) was 23%. Further, the inhibition at 10 µM in data set [2] (setting [7]) was 15%.

Take `NCc1cc(CCC(=O)O)no1` [Example 12, 5-Aminomethylisoxazole-3-propionic acid]: the “Stimulation … (%)” value in data set [1] (setting [6]) is listed as 17%. The values for the inhibition in vivo at 50 mg/kg in data set [3] (setting [8]) and in data set [3] (setting [9]) were 45% and 60%, respectively. This molecule returned an LD50 in data set [4] greater than 100 mg/kg. The “Cell necroses (% change)” value in data set [5] (10 mg/kg i.p.) is recorded as -32 % change; in data set [5] (50 mg/kg p.o.) it was -14 % change. For the same molecule, the “Behavior score (% change)” value in data set [5] (10 mg/kg i.p.) and in data set [5] (50 mg/kg p.o.) was 0 % change each time.

With `COC(=O)CCC1CC(CN)=NO1` (stereo not drawn) [Example 34, Methyl 3-aminomethyl-2-isoxazoline-5-propionate toluene-4-sulfonate], in data set [2] (setting [10]), the inhibition at 10 µM turned out to be 9%.

For the molecule `CC(C)[C@@H]1CC[C@@H](C)C[C@H]1OC(=O)CCc1cc(C[N+](C)(C)C)on1` [Example 18, (-)-Menthyl 5-trimethylammoniomethylisoxazole-3-propionate iodide], in data set [1] (setting [11]), the “Stimulation … (%)” value is on record as 46%. In addition, in data set [2] (setting [7]), the inhibition at 10 µM worked out at 22%. In data set [5] (50 mg/kg p.o.), the “Cell necroses (% change)” value is reported as -23 % change and the “Behavior score (% change)” value was “+15 % change”.

In the case of `CC(C)[C@H]1CC[C@H](C)C[C@@H]1OC(=O)CCc1cc(CNC(=O)[C@@H](N)Cc2ccccc2)on1` [Example 20, (+)-Menthyl 5-(L-phenylalanylamino)methylisoxazole-3propionate hydrochloride], in data set [2] (setting [7]), the inhibition at 10 µM is 18%. Moreover, the values for the inhibition in vivo at 50 mg/kg in data set [3] (setting [8]) and in data set [3] (setting [9]) were 10% and 100%, respectively. In data set [4], this molecule showed an LD50 of 25 to 50 mg/kg.

Take `NCc1cc(=O)[nH]o1` [Muscimol, 5-(aminomethyl)-3(2H)-isoxazolone, reference compound]: in data set [3] (one hour before NMDA i.v., change compared to control group, read-out: Inhibition of convulsions), the inhibition in vivo at 0.3 mg/kg is 40%. For the same molecule, the inhibition in vivo at 0.3 mg/kg in data set [3] (one hour before NMDA i.v., change compared to control group, read-out: Inhibition of mortality) came to 60%. The molecule also gave an LD50 in data set [4] of 3 to 10 mg/kg. Besides, in data set [5] (5 mg/kg i.p.), the “Cell necroses (% change)” value is -74 % change and the “Behavior score (% change)” value is listed as “+41 % change”. In addition, in data set [5] (summary of Table 7), the “post-ischemic neurological symptoms, behavior score (in words)” value is recorded as “distinctly more negative post-ischemic symptoms in the behavior score” and the “protection of cerebral nerve cells / dying cells (in words)” value is recorded as “reduction in the dying cells”.
